In series [1] the target is T1, Human Neuropeptide Y2 Receptor (Homo sapiens, UniProt P49146).
T1 construct: purchased CHEMICON HTS066M
T1 sequence (P49146 1-381): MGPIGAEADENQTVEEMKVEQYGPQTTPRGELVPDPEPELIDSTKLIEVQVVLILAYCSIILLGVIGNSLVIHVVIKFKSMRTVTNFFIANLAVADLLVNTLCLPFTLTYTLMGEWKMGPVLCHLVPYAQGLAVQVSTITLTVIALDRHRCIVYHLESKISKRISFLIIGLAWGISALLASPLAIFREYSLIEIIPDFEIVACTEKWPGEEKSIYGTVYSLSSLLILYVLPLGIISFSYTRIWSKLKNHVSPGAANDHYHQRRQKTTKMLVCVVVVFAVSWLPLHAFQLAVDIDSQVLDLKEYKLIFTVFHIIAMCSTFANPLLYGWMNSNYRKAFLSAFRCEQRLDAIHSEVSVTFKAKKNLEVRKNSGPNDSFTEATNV
The series is described as follows: Radioligand binding competition assay (RLB). The note with it: Table 3, 125I-PYY(1-36) competition; read-out: Ki. The essentials: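 Displacement of radioligand is measured after 2 h at room temperature with receptor membranes in Mg2+/Ca2+ HEPES buffer, pH 7.4. Filter-bound radioactivity is counted and IC50 obtained from curve fitting.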

The nature of series [2]: Solubility determination. The conditions noted are these: for Sol6: pH 6; for Sol7: pH 7. The essentials: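 First, TFA-salt peptide was added to 0.1 M sodium diphosphate (pH 6.4 or 7.0) to 10 mg/ml and shaken 2 h at room temperature. Next, insoluble material was filtered off. Finally, filtrate and control, each 1 mg/ml in 50% acetonitrile, were compared by reversed-phase chromatography.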

*1 amine or outer side, *2 acyl side, *3 side chain or, on linkers, in order; H or OH if unused. Where a SMILES comes first, the peptide text is derived from it. Side-chain parts run from the residue outwards. The star is where a group is joined. C18 diacid = O=C(O)CCCCCCCCCCCCCCCCC(=O)*; γGlu = O=C(O)[C@H](CCC(=O)[*:2])N[*:1]; Isovaleryl = CC(C)CC(=O)*; Ahx = NCCCCCC(=O)O

For `CC(C)CC(=O)N[C@@H](C)C(=O)N1CCC[C@H]1C(=O)N[C@@H](CCC(=O)O)C(=O)N[C@@H](CCCCNC(=O)CCCCCNC(=O)CC[C@H](NC(=O)CCCCCCCCCCCCCCCCC(=O)O)C(=O)O)C(=O)N1CCC[C@H]1C(=O)N[C@@H](CCC(=O)O)C(=O)N[C@@H](CCC(=O)O)C(=O)N[C@@H](CC(=O)O)C(=O)N[C@@H](C)C(=O)N[C@H](C(=O)N1CCC[C@H]1C(=O)N[C@@H](CCC(=O)O)C(=O)N[C@@H](CCC(=O)O)C(=O)N[C@@H](CC(C)C)C(=O)N[C@@H](CCC(N)=O)C(=O)N[C@@H](CCC(=O)O)C(=O)N[C@@H](Cc1ccc(O)cc1)C(=O)N[C@@H](Cc1ccc(O)cc1)C(=O)N[C@H](C(=O)N[C@@H](CO)C(=O)N[C@@H](CC(C)C)C(=O)N[C@@H](CCCNC(=N)N)C(=O)N[C@@H](Cc1c[nH]cn1)C(=O)N[C@@H](Cc1ccc(O)cc1)C(=O)N[C@@H](Cc1ccc(O)cc1)C(=O)N[C@@H](CC(N)=O)C(=O)N[C@@H](Cc1c[nH]c2ccccc12)C(=O)N[C@@H](CC(C)C)C(=O)N[C@H](C(=O)N[C@@H](CCCNC(=N)N)C(=O)N[C@@H](CCC(N)=O)C(=O)N[C@@H](CCCNC(=N)N)C(=O)N[C@@H](Cc1ccc(O)cc1)C(N)=O)[C@@H](C)O)C(C)C)[C@@H](C)O` [Compound 38, N{alpha-4}-(3-methylbutanoyl)-N{epsilon-7}-(6-[(4S)-4-carboxy-4-(17-carboxyheptadecanamido)butanamido]hexanoyl)[4A,7K,9E,13T,18Q,19E,22V,28Y,30W,31L]-hPYY(4-36)], the Ki in series [1] stood at 12.4 nM. Further, in series [2], the “Sol6” value turned out to be 10.0 mg/mL and the “Sol7” value was determined as 10.0 mg/mL.
For `CC[C@H](C)[C@H](NC(=O)[C@H](CCC(=O)O)NC(=O)[C@H](CCC(=O)O)NC(=O)[C@@H]1CCCN1C(=O)[C@H](CCC(=O)O)NC(=O)[C@H](C)NC(=O)[C@H](C)NC(=O)[C@H](CCC(=O)O)NC(=O)[C@H](CCC(=O)O)NC(=O)[C@@H]1CCCN1C(=O)[C@H](CCCCNC(=O)CCCCCNC(=O)CC[C@H](NC(=O)CCCCCCCCCCCCCCCCC(=O)O)C(=O)O)NC(=O)[C@H](C)NC(=O)[C@@H]1CCCN1C(=O)[C@H](C)NC(=O)CC(C)C)C(=O)N[C@@H](CCC(N)=O)C(=O)N[C@@H](CCCNC(=N)N)C(=O)N[C@@H](Cc1ccc(O)cc1)C(=O)N[C@@H](Cc1ccc(O)cc1)C(=O)N[C@H](C(=O)N[C@@H](C)C(=O)N[C@@H](CC(C)C)C(=O)N[C@@H](CCCNC(=N)N)C(=O)N[C@@H](Cc1c[nH]cn1)C(=O)N[C@@H](Cc1ccc(O)cc1)C(=O)N[C@@H](Cc1ccc(O)cc1)C(=O)N[C@@H](CC(N)=O)C(=O)N[C@@H](Cc1c[nH]c2ccccc12)C(=O)N[C@@H](CC(C)C)C(=O)N[C@H](C(=O)N[C@@H](CCCNC(=N)N)C(=O)N[C@@H](CCC(N)=O)C(=O)N[C@@H](CCCNC(=N)N)C(=O)N[C@@H](Cc1ccc(O)cc1)C(N)=O)[C@@H](C)O)C(C)C` [Compound 167, N{alpha-4}-(3-methylbutanoyl)-N{epsilon-7}-(6-[(4S)-4-carboxy-4-(17-carboxyheptadecanamido)butanamido]hexanoyl)-[4A,6A,7K,9E,11A,13E,17I,18Q,22V,23A,28Y,30W,31L]-hPYY(4-36)], the inhibition constant Ki in series [1] amounted to 4.58 nM. Further, in series [2], the “Sol6” value was 0.0 mg/mL and the “Sol7” value was found to be 9.5 mg/mL.
The matching figures for `CC[C@H](C)[C@H](NC(=O)[C@H](Cc1ccc(O)cc1)NC(=O)[C@H](Cc1ccc(O)cc1)NC(=O)[C@H](CCCNC(=N)N)NC(=O)[C@H](CCC(N)=O)NC(=O)[C@H](CC(C)C)NC(=O)[C@H](CCC(=O)O)NC(=O)[C@H](CCC(=O)O)NC(=O)[C@@H]1CCCN1C(=O)[C@@H](NC(=O)[C@H](C)NC(=O)[C@H](CC(=O)O)NC(=O)[C@H](C)NC(=O)[C@H](CCC(=O)O)NC(=O)[C@@H]1CCCN1C(=O)[C@H](CCCCNC(=O)CCCCCNC(=O)CC[C@H](NC(=O)CCCCCCCCCCCCCCCCC(=O)O)C(=O)O)NC(=O)[C@H](CCC(=O)O)NC(=O)[C@@H]1CCCN1C(=O)[C@H](C)NC(=O)CC(C)C)[C@@H](C)O)C(=O)N[C@@H](CO)C(=O)N[C@@H](CC(C)C)C(=O)N[C@@H](CCCNC(=N)N)C(=O)N[C@@H](Cc1c[nH]cn1)C(=O)N[C@@H](Cc1ccc(O)cc1)C(=O)N[C@@H](Cc1ccc(O)cc1)C(=O)N[C@@H](CC(N)=O)C(=O)N[C@@H](Cc1c[nH]c2ccccc12)C(=O)N[C@@H](CC(C)C)C(=O)N[C@H](C(=O)N[C@@H](CCCNC(=N)N)C(=O)N[C@@H](CCC(N)=O)C(=O)N[C@@H](CCCNC(=N)N)C(=O)N[C@@H](Cc1ccc(O)cc1)C(N)=O)[C@@H](C)O` [Compound 25, N{alpha-4}-(3-methylbutanoyl)-N{epsilon-7}-(6-[(4S)-4-carboxy-4-(17-carboxyheptadecanamido)butanamido]hexanoyl)[4A,7K,9E,10A,13T,18Q,22I,28Y,30W,31L]-hPYY(4-36)] (Isovaleryl-APEK([Ahx-γGlu-C18 diacid])PEADATPEELQRYYISLRHYYNWLTRQRY-NH2): 1.55 nM, 9.3 mg/mL and 9.3 mg/mL.
For `CC(C)CC(=O)N[C@@H](C)C(=O)N1CCC[C@H]1C(=O)N[C@@H](CCC(=O)O)C(=O)N[C@@H](CCCCNC(=O)CCCCCNC(=O)CC[C@H](NC(=O)CCCCCCCCCCCCCCCCC(=O)O)C(=O)O)C(=O)N1CCC[C@H]1C(=O)N[C@@H](CCC(=O)O)C(=O)N[C@@H](CCC(=O)O)C(=O)N[C@@H](CC(=O)O)C(=O)N[C@@H](C)C(=O)N[C@H](C(=O)N[C@@H](CCC(N)=O)C(=O)N[C@@H](CCC(=O)O)C(=O)N[C@@H](CCC(=O)O)C(=O)N[C@@H](CC(C)C)C(=O)N[C@@H](CCC(N)=O)C(=O)N[C@@H](CCCNC(=N)N)C(=O)N[C@@H](Cc1ccc(O)cc1)C(=O)N[C@@H](Cc1ccc(O)cc1)C(=O)N[C@H](C(=O)N[C@@H](CO)C(=O)N[C@@H](CC(C)C)C(=O)N[C@@H](CCCNC(=N)N)C(=O)N[C@@H](Cc1c[nH]cn1)C(=O)N[C@@H](Cc1ccc(O)cc1)C(=O)N[C@@H](Cc1ccc(O)cc1)C(=O)N[C@@H](CC(N)=O)C(=O)N[C@@H](Cc1c[nH]c2ccccc12)C(=O)N[C@@H](CC(C)C)C(=O)N[C@H](C(=O)N[C@@H](CCCNC(=N)N)C(=O)N[C@@H](CCC(N)=O)C(=O)N[C@@H](CCCNC(=N)N)C(=O)N[C@@H](Cc1ccc(O)cc1)C(N)=O)[C@@H](C)O)C(C)C)[C@@H](C)O` [Compound 105, N{alpha-4}-(3-methylbutanoyl)-N{epsilon-7}-(6-[(4S)-4-carboxy-4-(17-carboxyheptadecanamido)butanamido]hexanoyl)-[4A,7K,9E,13T,14Q,18Q,22V,28Y,30W,31L]-hPYY(4-36)] the same measures were 5.97 nM, >10.0 mg/mL and 9.9 mg/mL.
For `CC(C)CC(=O)N[C@@H](C)C(=O)N1CCC[C@H]1C(=O)N[C@@H](CCC(=O)O)C(=O)N[C@@H](CCCCNC(=O)CCCCCNC(=O)CC[C@H](NC(=O)CCCCCCCCCCCCCCCCC(=O)O)C(=O)O)C(=O)N1CCC[C@H]1C(=O)N[C@@H](CCC(=O)O)C(=O)N[C@@H](CCC(=O)O)C(=O)N[C@@H](CC(=O)O)C(=O)N[C@@H](C)C(=O)N[C@@H](CO)C(=O)N[C@@H](C)C(=O)N[C@@H](CCC(=O)O)C(=O)N[C@@H](CCC(=O)O)C(=O)N[C@@H](CC(C)C)C(=O)N[C@@H](CCC(N)=O)C(=O)N[C@@H](CCC(N)=O)C(=O)N[C@@H](Cc1ccc(O)cc1)C(=O)N[C@@H](Cc1ccc(O)cc1)C(=O)N[C@H](C(=O)N[C@@H](CO)C(=O)N[C@@H](CC(C)C)C(=O)N[C@@H](CCCNC(=N)N)C(=O)N[C@@H](Cc1c[nH]cn1)C(=O)N[C@@H](Cc1ccc(O)cc1)C(=O)N[C@@H](Cc1ccc(O)cc1)C(=O)N[C@@H](CC(N)=O)C(=O)N[C@@H](Cc1c[nH]c2ccccc12)C(=O)N[C@@H](CC(C)C)C(=O)N[C@H](C(=O)N[C@@H](CCCNC(=N)N)C(=O)N[C@@H](CCC(N)=O)C(=O)N[C@@H](CCCNC(=N)N)C(=O)N[C@@H](Cc1ccc(O)cc1)C(N)=O)[C@@H](C)O)C(C)C` [Compound 34, N{alpha-4}-(3-methylbutanoyl)-N{epsilon-7}-(6-[(4S)-4-carboxy-4-(17-carboxyheptadecanamido)butanamido]hexanoyl)[4A,7K,9E,14A,18Q,19Q,22V,28Y,30W,31L]-hPYY(4-36)] the same measures were 3.53 nM, 9.2 mg/mL and 9.1 mg/mL.

For orientation: Ki means the dissociation constant of the complex between target and ligand, obtained from inhibition or displacement.

For the origin of these results see patent US12391737B2, “Soluble NPY2 receptor agonists” (Boehringer Ingelheim International GmbH, priority 2020, dated 2025).
